The text below walks through data of patent US11384063B2, “Modulators of estrogen receptor proteolysis and associated methods of use” (Arvinas Operations, Inc., priority 2017, dated 2022).

Test [1] addresses T1, ERα (Homo sapiens, UniProt P03372).
T1 sequence (P03372 1-595): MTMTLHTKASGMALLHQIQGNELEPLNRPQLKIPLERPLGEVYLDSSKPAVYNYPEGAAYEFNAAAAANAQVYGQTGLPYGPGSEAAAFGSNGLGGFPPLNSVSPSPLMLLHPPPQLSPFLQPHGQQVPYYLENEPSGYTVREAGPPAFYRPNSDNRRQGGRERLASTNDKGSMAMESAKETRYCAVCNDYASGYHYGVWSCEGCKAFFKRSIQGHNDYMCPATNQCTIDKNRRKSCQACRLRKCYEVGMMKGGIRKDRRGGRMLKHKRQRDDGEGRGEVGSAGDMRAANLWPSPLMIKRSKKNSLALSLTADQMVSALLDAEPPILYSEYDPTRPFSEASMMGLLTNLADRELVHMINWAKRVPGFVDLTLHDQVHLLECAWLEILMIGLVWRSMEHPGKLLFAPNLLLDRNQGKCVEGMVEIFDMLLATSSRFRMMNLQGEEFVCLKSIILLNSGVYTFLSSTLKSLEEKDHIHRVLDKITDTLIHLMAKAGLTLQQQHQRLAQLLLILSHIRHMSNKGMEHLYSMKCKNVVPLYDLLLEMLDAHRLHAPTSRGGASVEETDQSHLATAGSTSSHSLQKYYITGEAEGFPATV
The experiment in a line: Estrogen receptor-alpha (ERα) degradation assay in MCF7 cells using In-Cell Western assay. It counts as cell-based. Details: assessed for their activity in degrading ERα in MCF-7 cells via western blot; endogenous in cells; host or cells: MCF7 cells. The settings on record: ER-alpha degradation in MCF7 cells, 5 days of incubation. The method, boiled down: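 MCF7 cells treated 3 or 5 days at 37 °C with 11-point 3-fold dilutions from 1 μM final top. Fixed cells immunostained for ERα and tubulin, read by infrared imaging at 700/800 nm. ERα normalized to tubulin then to DMSO vehicle; DC50 and Dmax from 4-parameter curve fit.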

Test [2] has as its target T1, ERα. Nature of the test: ERE luciferase reporter gene assay in T47D-KBluc cells (target engagement). It counts as cell-based. On the set-up: T47D human breast cancer cells stably transfected with estrogen responsive element/promoter/luciferase reporter gene; host or cells: T47D-KBluc cells. The settings on record: 10% FBS, 24 hours, Table 3 cereblon centric PROTACs, read-out: ER-α Luciferase IC50. Summed up: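 PROTACs were tested at 12 concentrations from 300 nM down to 2 pM in 3-fold steps for 24 h on T47D-KBluc cells with a stable ERE-driven luciferase. Medium was RPMI with 10% FBS, measured at 10 pM estrogen. IC50 came from luminescence after lysis, in duplicate.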
In general terms: A reporter such as luciferase makes a cellular process visible.

For orientation: DC50 means the midpoint of the concentration-degradation curve. Higher therefore signals degradation only at high concentration. By Dmax is commonly meant the largest share of the target that was removed. Higher therefore signals deep degradation. A word on the IC50: it is the concentration that inhibits the measured activity by half. For `O=C1CCC(N2Cc3cc(N4CCN(CC5CCN(c6ccc(Oc7c(-c8ccc(F)cc8)sc8cc(O)ccc78)cn6)CC5)CC4)ccc3C2=O)C(=O)N1` (stereo not drawn) [Compound 232, 3-[5-[4-[[1-[5-[2-(4-fluorophenyl)-6-hydroxy-benzothiophen-3-yl]oxy-2-pyridyl]-4-piperidyl]methyl]piperazin-1-yl]-1-oxo-isoindolin-2-yl]piperidine-2,6-dione], on ERα [1], the DC50 is less than 1 nM and the Dmax is greater than 75%. The IC50 at ERα [2] amounted to 1.6 nM.
The matching figures for `COc1ccc(-c2sc3cc(O)ccc3c2Oc2ccc(N3CCC(CN4CCN(c5ccc6c(c5)CN(C5CCC(=O)NC5=O)C6=O)CC4)CC3)cc2)cc1` (stereo not drawn) [Compound 234, 3-[5-[4-[[1-[4-[6-hydroxy-2-(4-methoxyphenyl)benzothiophen-3-yl]-oxyphenyl]-4-piperidyl]methyl]piperazin-1-yl]-1-oxo-isoindolin-2-yl]piperidine-2,6-dione]: less than 1 nM, 50 to 75% and 0.65 nM.
The matching figures for `O=C1CCC(N2Cc3nc(N4CCN(CC5CCN(c6ccc(Oc7c(-c8ccc(Br)cc8)sc8cc(O)ccc78)cc6)CC5)CC4)ccc3C2=O)C(=O)N1` (stereo not drawn) [Compound 235, 3-[2-[4-[[1-[4-[2-(4-bromophenyl)-6-hydroxy-benzothiophen-3-yl]oxyphenyl]-4-piperidyl]methyl]piperazin-1-yl]-5-oxo-7H-pyrrolo[3,4-b]pyridin-6-yl]piperidine-2,6-dione]: 1 to 10 nM, greater than 75% and 6.9 nM.
On to `O=C1CCC(N2Cc3cc(N4CCN(CC5CCN(c6ccc(Oc7c(-c8ccc(Br)cc8)sc8cc(O)ccc78)cn6)CC5)CC4)ccc3C2=O)C(=O)N1` (stereo not drawn) [Compound 236, 3-[5-[4-[[1-[5-[2-(4-bromophenyl)-6-hydroxy-benzothiophen-3-yl]oxy-2-pyridyl]-4-piperidyl]methyl]piperazin-1-yl]-1-oxo-isoindolin--2-yl]piperidine-2,6-dione], for which, at ERα [1], the DC50 was in the range of 1 to 10 nM and the Dmax is greater than 75%. On ERα [2], the IC50 turned out to be 4.9 nM.
Turning to `COc1ccc(-c2sc3cc(O)ccc3c2Oc2ccc(N3CCC(CN4CCN(c5ccc6c(c5)C(=O)N(C5CCC(=O)NC5=O)C6=O)CC4)CC3)cc2)cc1` (stereo not drawn) [Compound 237, 2-(2,6-dioxo-3-piperidyl)-5-[4-[[1-[4-[6-hydroxy-2-(4-methoxyphenyl)benzothiophen-3-yl]oxyphenyl]-4-piperidyl]methyl]piperazin-1-yl]isoindoline-1,3-dione], at ERα [1], the DC50 lay in the range of 10 to 100 nM and the Dmax was greater than 75%. Moreover, the IC50 at ERα [2] is 4.9 nM.
The matching figures for `O=C1CCC(N2Cc3cc(N4CCN(CC5CCN(c6ccc(Oc7c(-c8ccc(Br)cc8)sc8cc(O)ccc78)cc6F)CC5)CC4)ccc3C2=O)C(=O)N1` (stereo not drawn) [Compound 238, 3-[5-[4-[[1-[4-[2-(4-bromophenyl)-6-hydroxy-benzothiophen-3-yl]oxy-2-fluoro-phenyl]-4-piperidyl]methyl]piperazin-1-yl]-1-oxo-isoindolin-2-yl]piperidine-2,6-dione]: 10 to 100 nM, greater than 75% and 10.9 nM.
The matching figures for `O=C1CCC(N2Cc3nc(N4CCN(CC5CCN(c6ccc(Oc7c(-c8ccc(Br)cc8)sc8cc(O)ccc78)cc6F)CC5)CC4)ccc3C2=O)C(=O)N1` (stereo not drawn) [Compound 239]: 10 to 100 nM, greater than 75% and 13.5 nM.
The matching figures for `O=C1CCC(N2Cc3nc(N4CCN(CC5CCN(c6ccc(Oc7c(-c8ccc(O)cc8)sc8cc(O)ccc78)cc6)CC5)CC4)ccc3C2=O)C(=O)N1` (stereo not drawn) [Compound 243, 3-[2-[4-[[1-[4-[6-hydroxy-2-(4-hydroxyphenyl)benzothiophen-3-yl]oxyphenyl]-4-piperidyl]methyl]piperazin-1-yl]-5-oxo-7H-pyrrolo[3,4-b]pyridin-6-yl]piperidine-2,6-dione]: 1 to 10 nM, 50 to 75% and 0.18 nM.
